Measured values: patent US9642819B2, “Low dosage serotonin 5-HT2A receptor agonist to suppress inflammation” (BOARD OF SUPERVISORS OF LOUISIANA STATE UNIVERSITY AND …, priority 2008, dated 2017)
Read-outs that look alike come from different tables or passages of the source.

Experiments:
ICAM-1 gene expression = test: TNF-α induced ICAM-1 gene expression in primary rat aortic smooth muscle cells; type: cell-based; settings: for IC50: Rattus norvegicus
Description: (§1) RASM cells and treatment. Rat aortic smooth muscle (RASM) cells were isolated from adult 180 g male Sprague-Dawley rats and provided by the Cell and Molecular Core Facility in the Department of Pharmacology at LSUHSC-NO. Isolated RASM cells were grown in M-199 media containing 10% fetal bovine serum (Gibco), 100 units/mL penicillin, and 100 µg/mL streptomycin, and incubated at 37° C. in 5% CO2. Cells for all assays were used between passages 3 and 5. Prior to treatments, cells were grown in M-199 media with 10% fetal bovine serum (FBS) until 30-50% confluent. For most assays, cells were treated with (R)-DOI, or other drugs as indicated, at specific concentrations for 24 hours, followed by TNF-α (10 ng/ml) and (R)-DOI at the same pretreatment concentrations in fresh M-199 media. After another 24 hours, the cells were scraped, pelleted, and processed for RNA.
RNA isolation and Quantitative Realtime-PCR. RNA was extracted from cells using Illustra RNAspin Mini kits from GE Healthcare Life Sciences (Piscataway, N.J.) following protocols supplied by the manufacturer. First strand cDNA was generated using the ImProm-II cDNA synthesis kit (Promega) following the manufacturers protocols. Q-RT-PCR was performed using the ProbeLibrary system from Roche (Indianapolis, Ind.) in combination with the HotStart-IT probe qpcr master mix from USB Biological (Cleveland, Ohio) following manufactures protocols.
Primers were synthesized by IDT (Coralville, Iowa). ProbeLibrary probes from Roche were: U3, U74, U13, U106, U79 for 5-HT2AR, ICAM-1, VCAM-1, IL-6, and cyclophillin B, respectively. Quantitative determination of gene expression levels using a 2-step cycling protocol was performed on a MyIQ-5 Cycler (Bio-Rad, Hercules Calif.). Relative gene expression levels were calculated using the 2^[−ΔΔC(T)] method. Levels of all targets from the test samples were normalized to rat cyclophillin B expression.
To examine the effects of 5-HT2A receptor activation on TNF-α mediated proinflammatory gene expression, RASM cells were pretreated with (R)-DOI, a selective 5-HT2 receptor agonist, as described above. Dose-response curves were determined for the effects on ICAM-1, VCAM-1, and IL-6 gene expression for twelve different concentrations of (R)-DOI ranging from 0.1 pM to 100 nM, with each experiment repeated in triplicate. In FIGS. 1A-1C, the Y-axis represents a percent of TNF-α for the dose of (R)-DOI indicated on the X-axis.

5-HT2A receptor = 5-HT2A receptor (Rattus norvegicus, UniProt P14842); settings: read-out: EC50 phosphoinositide turnover; standard pharmacological assay of 5-HT2A receptor activity; cited from earlier work
VCAM-1 gene expression = test: TNF-α induced VCAM-1 gene expression in primary rat aortic smooth muscle cells; type: cell-based; settings: RASM passage 4, media with FBS, 24 h pretreatment, TNF-α 10 ng/ml, read-out: IC50 for proinflammatory gene expression inhibition for VCAM-1
Description: as §1, with “For most assays, cells were treated with (R)-DOI, or other drugs as indicated, at specific concentrations for 24 hours, followed by TNF-α (10 ng/ml) and (R)-DOI at the same pretreatment concentrations in fresh M-199 media. After another 24 hours, the cells were scraped, pelleted, and processed for RNA.” left out
RNA isolation and Quantitative Realtime-PCR. […]
The sequences of primers used are: 5-HT2AR (5-hydroxytryptamine 2A receptor): forward primer 5′-[…]-3′ (SEQ ID NO: 1), reverse primer, 5′[…]-3′ (SEQ ID NO: 2); ICAM-1 (intracellular adhesion molecule 1): forward primer, 5′-[…]-3′ (SEQ ID NO: 3, reverse primer, 5′-[…]-3′ (SEQ ID NO: 4); VCAM-1 (vascular adhesion molecule 1): forward primer, 5′-[…]-3′ (SEQ ID NO: 5), reverse primer, 5′-[…]-3′ (SEQ ID NO: 6); IL-6 (interleukin-6): forward primer, 5′-[…] […]-3′ (SEQ ID NO: 7), reverse primer, 5′-[…]-3′ (SEQ ID NO: 8); and cyclophillin B (control amplicon): forward primer, 5′-[…]-3′ (SEQ ID NO: 9), reverse primer, 5′-[…]-3′ (SEQ ID NO: 10). […] Quantitative determination of gene expression levels using a 2-step cycling protocol was performed on a MyIQ-5 Cycler (Bio-Rad, Hercules Calif.). […]

5-HT2A receptor, sequence (P14842 whole entry): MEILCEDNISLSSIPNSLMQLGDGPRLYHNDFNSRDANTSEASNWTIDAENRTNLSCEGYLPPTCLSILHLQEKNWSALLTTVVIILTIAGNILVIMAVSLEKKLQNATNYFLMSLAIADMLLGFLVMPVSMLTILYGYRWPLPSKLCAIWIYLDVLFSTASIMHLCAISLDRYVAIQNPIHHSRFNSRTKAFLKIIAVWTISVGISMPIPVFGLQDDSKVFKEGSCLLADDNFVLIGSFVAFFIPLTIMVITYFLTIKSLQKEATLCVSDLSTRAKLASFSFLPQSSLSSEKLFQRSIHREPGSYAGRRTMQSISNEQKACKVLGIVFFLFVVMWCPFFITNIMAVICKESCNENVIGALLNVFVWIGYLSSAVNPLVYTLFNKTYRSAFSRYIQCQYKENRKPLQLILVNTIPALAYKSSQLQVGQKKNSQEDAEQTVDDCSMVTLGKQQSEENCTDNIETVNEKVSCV

COc1cc(C[C@@H](C)N)c(OC)cc1I [(R)-DOI, (R)-1-(2,5-dimethoxy-4-iodophenyl)-2-aminopropane]
block of TNF-α induced ICAM1 gene expression at 1 nM (ICAM-1 gene expression; 1 nM pretreatment, VCAM1 and IL6 identical): blocked gene expression
block of TNF-α effect on ICAM-1 expression with 24 hour and one hour pretreatments and simultaneous treatment (ICAM-1 gene expression; 1 nM, TNF-α 10 ng/ml): completely blocked
IC50 (ICAM-1 gene expression; RASM passage 4, media with FBS, 24 h pretreatment, TNF-α 10 ng/ml, read-out: IC50 for proinflammatory gene expression inhibition for ICAM-1): 0.0195 nM
IC50 (ICAM-1 gene expression; RASM passage 4, serum starved for 8 hours, read-out: IC50 for ICAM-1 gene expression inhibition in serum-free media): 0.36 nM
EC50 (5-HT2A receptor): 10 to 20 nM
IC50 (VCAM-1 gene expression): 0.012 nM
